Experimental data as given in patent US4597901A, “β-indolylalanyl or β-indolylglycinyl vasopressin antagonists” (SmithKline Beckman Corporation, priority 1984, dated 1986).
*1 amine or outer side, *2 acyl side, *3 side chain or, on linkers, in order; H or OH if unused. Where a SMILES comes first, the peptide text is derived from it. Bridges are numbered along the chain shown (N, C = ends). [ ]: non-standard residue; d: D form. The star is where a group is joined. X1 = O=C(CC1(S[*:2])CCCCC1)[*:1]; For = O=C*

The compounds below were run against vasopressin receptors [V2 -receptors] (Sus scrofa, UniProt P32307) (assay: biochemical).
vasopressin receptors [V2 -receptors], sequence (P32307 whole entry): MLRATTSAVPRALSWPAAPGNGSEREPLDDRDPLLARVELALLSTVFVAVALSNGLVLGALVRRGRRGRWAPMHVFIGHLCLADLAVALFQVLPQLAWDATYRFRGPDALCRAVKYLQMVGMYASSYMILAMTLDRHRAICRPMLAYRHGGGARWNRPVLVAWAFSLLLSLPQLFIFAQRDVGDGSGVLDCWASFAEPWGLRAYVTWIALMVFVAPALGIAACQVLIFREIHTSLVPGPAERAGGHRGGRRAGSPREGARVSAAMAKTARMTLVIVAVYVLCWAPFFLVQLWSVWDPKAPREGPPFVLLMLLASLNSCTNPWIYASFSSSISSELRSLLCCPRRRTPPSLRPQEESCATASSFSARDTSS
Text: Details of the in vitro protocols are in F. L. Stassen et al., J. of Pharm. Exp. Ther. 233, 50-54 (1982) but the calculations of cyclase activity and binding potential at the receptor site are as follows:
Test Procedure for Binding Assay:
These values represent total and non-specific binding, respectively.

Row | Compound | Kb [nM]
1 | CC(C)[C@@H]1NC(=O)[C@H](Cc2ccccc2)NC(=O)[C@@H](Cc2cn(C=O)c3ccccc23)NC(=O)CC2(CCCCC2)SSC[C@@H](C(=O)N2CCC[C@H]2C(=O)N[C@@H](CCCNC(=N)N)C(=O)NCC(N)=O)NC(=O)[C@H](CC(N)=O)NC1=O [D-Trp (For), [1-(β-mercapto-β,β-cyclopentamethylenepropionic acid)-2-D-tryptophan-(N-formyl)-4-valine-8-arginine]vasopressin] ([dW](For)FVNCPRG-NH2; linker N-5 via X1) | 78
2 | CC(C)[C@@H]1NC(=O)[C@H](Cc2ccccc2)NC(=O)[C@H](Cc2cn(C=O)c3ccccc23)NC(=O)CC2(CCCCC2)SSC[C@@H](C(=O)N2CCC[C@H]2C(=O)N[C@@H](CCCNC(=N)N)C(=O)NCC(N)=O)NC(=O)[C@H](CC(N)=O)NC1=O [L-Trp (For)] (W(For)FVNCPRG-NH2; linker N-5 via X1) | 840
3 | CC(C)[C@@H]1NC(=O)[C@H](Cc2ccccc2)NC(=O)[C@H](Cc2c[nH]c3ccccc23)NC(=O)CC2(CCCCC2)SSC[C@@H](C(=O)N2CCC[C@H]2C(=O)N[C@@H](CCCNC(=N)N)C(=O)NCC(N)=O)NC(=O)[C@H](CC(N)=O)NC1=O [L-Trp] (WFVNCPRG-NH2; linker N-5 via X1) | 2100
